Results reported in ChEMBL document CHEMBL1149954, “Synthesis of methyl -sialosides N-substituted with large alkanoyl groups, and investigation of their inhibition of agglutination of erythrocytes by influenza A virus” (Bioorg Med Chem Lett, 1993).

Tests used:
[1] = Compound was tested for its ability to displace a fluorescent ligand from the active site of bromelaine-cleaved hemagglutininin (BHA); design: species or system Gallus gallus
Gallus gallus = organism: Gallus gallus; experiment: Compound was tested for its ability to displace a fluorescent ligand from the active site of bromelaine-cleaved hemagglutininin (BHA) at concentrations above 5 mM; no displacement was observed
[2] = Compound was tested for the inhibition of hemagglutinination when incorporated into liposomes (Hemagglutinination inhibition (HAI) assay); no inhibition took place

For COC(=O)C1(OC)CC(O)C(NC(C)=O)C([C@H](O)[C@H](O)CO)O1 (stereo partly drawn), which Kd [1] is on record?
Its Kd is 2800 µM.

Which Binding affinity (Gallus gallus) does the source give for CCCCCCCC(=O)NC1C(O)CC(OC)(C(=O)O)OC1[C@H](O)[C@H](O)CO (stereo partly drawn) here?
The Binding affinity was “no displacement was observed”.

With CCCCCCCCCCCCCC(=O)NC1C(O)CC(OC)(C(=O)O)OC1[C@H](O)[C@H](O)CO (stereo partly drawn) as the compound, how does the Ki [2] read?
Its Ki is over 1000 µM.
